# According to the supplement of paper PMC10307832:
# What was measured:
# Assay in all cases: relative viability (nuclei count vs DMSO), 5 days (fraction); higher = more cells survive
# [1] = tested on: NCI-H2085
# Outline: (§1)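 Dosing by pin tool came one day after lung cancer cell lines were seeded in 1536-well plates, using either one drug or a fixed anchor-drug dose plus five library-drug doses (not always all listed) in √10 steps. After 5 days, nuclei were counted on 4× images. Relative viability is treated-well nuclei count divided by vehicle-well nuclei count, and values are medians of duplicate plates.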
# [2] = tested on: H3255
# Outline: as §1
# [3] = tested on: COR-L23
# Outline: as §1
# [4] = tested on: NCI-H1563
# Outline: as §1
# [5] = tested on: HCC-827
# Outline: as §1
# [6] = tested on: NCI-H2405
# Outline: as §1
# [7] = tested on: NCI-H650
# Outline: as §1
# [8] = tested on: EPLC-272H
# Outline: as §1
# [9] = tested on: NCI-H2087
# Outline: as §1
# [10] = tested on: NCI-H2023
# Outline: as §1
# [11] = tested on: NCI-H520
# Outline: as §1
# [12] = tested on: ChaGo-K-1
# Outline: as §1
# [13] = tested on: LCLC-103H
# Outline: as §1
# [14] = tested on: EMC-BAC-2
# Outline: as §1
# [15] = tested on: NCI-H838
# Outline: as §1
# [16] = tested on: HCC-44
# Outline: as §1
# [17] = tested on: NCI-H1651
# Outline: as §1
# [18] = tested on: LU99A
# Outline: as §1
smiles,measurement,setting,value
CC(=O)O[C@@]12CO[C@@H]1C[C@H](O)[C@@]1(C)C(=O)[C@H](O)C3=C(C)[C@@H](OC(=O)[C@H](O)[C@@H](NC(=O)OC(C)(C)C)c4ccccc4)C[C@@](O)([C@@H](OC(=O)c4ccccc4)[C@H]21)C3(C)C [Docetaxel] + CC(C)C[C@H](NC(=O)[C@H](Cc1ccccc1)NC(=O)c1cnccn1)B(O)O [Bortezomib] (partner 0.002 µM),relative viability,[1]; first compound 0.0002 µM,0.882
same,relative viability,[1]; first compound 0.000632 µM,1.06
same,relative viability,[1]; first compound 0.002 µM,0.718
same,relative viability,[1]; first compound 0.006325 µM,0.54
same,relative viability,[1]; first compound 0.02 µM,0.46
same,relative viability,[2]; first compound 0.0002 µM,0.864
same,relative viability,[2]; first compound 0.000632 µM,0.497
same,relative viability,[2]; first compound 0.002 µM,0.489
same,relative viability,[2]; first compound 0.006325 µM,0.284
same,relative viability,[2]; first compound 0.02 µM,0.272
same,relative viability,[3]; first compound 0.0002 µM,0.885
same,relative viability,[3]; first compound 0.000632 µM,0.915
same,relative viability,[3]; first compound 0.002 µM,0.844
same,relative viability,[3]; first compound 0.02 µM,0.116
same,relative viability,[4]; first compound 0.0002 µM,0.912
same,relative viability,[4]; first compound 0.000632 µM,1.02
same,relative viability,[4]; first compound 0.002 µM,0.989
same,relative viability,[4]; first compound 0.006325 µM,0.741
same,relative viability,[4]; first compound 0.02 µM,0.582
same,relative viability,[5]; first compound 0.0002 µM,0.891
same,relative viability,[5]; first compound 0.000632 µM,0.962
same,relative viability,[5]; first compound 0.002 µM,1
same,relative viability,[5]; first compound 0.006325 µM,0.562
same,relative viability,[5]; first compound 0.02 µM,0.328
same,relative viability,[6]; first compound 0.0002 µM,0.988
same,relative viability,[6]; first compound 0.000632 µM,0.956
same,relative viability,[6]; first compound 0.002 µM,0.681
same,relative viability,[6]; first compound 0.006325 µM,0.394
same,relative viability,[6]; first compound 0.02 µM,0.308
same,relative viability,[7]; first compound 0.0002 µM,0.636
same,relative viability,[7]; first compound 0.000632 µM,0.425
same,relative viability,[7]; first compound 0.002 µM,0.309
same,relative viability,[7]; first compound 0.006325 µM,0.233
same,relative viability,[7]; first compound 0.02 µM,0.196
same,relative viability,[8]; first compound 0.0002 µM,0.761
same,relative viability,[8]; first compound 0.000632 µM,0.506
same,relative viability,[8]; first compound 0.002 µM,0.209
same,relative viability,[8]; first compound 0.006325 µM,0.168
same,relative viability,[8]; first compound 0.02 µM,0.0779
same,relative viability,[9]; first compound 0.0002 µM,0.701
same,relative viability,[9]; first compound 0.000632 µM,0.665
same,relative viability,[9]; first compound 0.002 µM,0.28
same,relative viability,[9]; first compound 0.006325 µM,0.224
same,relative viability,[9]; first compound 0.02 µM,0.142
same,relative viability,[10]; first compound 0.0002 µM,0.89
same,relative viability,[10]; first compound 0.000632 µM,0.456
same,relative viability,[10]; first compound 0.002 µM,0.134
same,relative viability,[10]; first compound 0.006325 µM,0.101
same,relative viability,[10]; first compound 0.02 µM,0.0677
same,relative viability,[11]; first compound 0.0002 µM,0.45
same,relative viability,[11]; first compound 0.000632 µM,0.233
same,relative viability,[11]; first compound 0.002 µM,0.251
same,relative viability,[11]; first compound 0.006325 µM,0.172
same,relative viability,[11]; first compound 0.02 µM,0.108
same,relative viability,[12]; first compound 0.0002 µM,1
same,relative viability,[12]; first compound 0.000632 µM,0.542
same,relative viability,[12]; first compound 0.002 µM,0.487
same,relative viability,[12]; first compound 0.006325 µM,0.419
same,relative viability,[12]; first compound 0.02 µM,0.267
same,relative viability,[13]; first compound 0.0002 µM,1.15
same,relative viability,[13]; first compound 0.000632 µM,1.12
same,relative viability,[13]; first compound 0.002 µM,0.714
same,relative viability,[13]; first compound 0.006325 µM,0.589
same,relative viability,[13]; first compound 0.02 µM,0.402
same,relative viability,[14]; first compound 0.0002 µM,0.963
same,relative viability,[14]; first compound 0.000632 µM,0.875
same,relative viability,[14]; first compound 0.002 µM,0.573
same,relative viability,[14]; first compound 0.006325 µM,0.306
same,relative viability,[14]; first compound 0.02 µM,0.206
same,relative viability,[15]; first compound 0.0002 µM,0.795
same,relative viability,[15]; first compound 0.000632 µM,0.522
same,relative viability,[15]; first compound 0.002 µM,0.247
same,relative viability,[15]; first compound 0.006325 µM,0.154
same,relative viability,[15]; first compound 0.02 µM,0.0975
same,relative viability,[16]; first compound 0.0002 µM,0.904
same,relative viability,[16]; first compound 0.000632 µM,0.905
same,relative viability,[16]; first compound 0.002 µM,0.57
same,relative viability,[16]; first compound 0.006325 µM,0.151
same,relative viability,[16]; first compound 0.02 µM,0.149
same,relative viability,[17]; first compound 0.0002 µM,0.802
same,relative viability,[17]; first compound 0.000632 µM,0.926
same,relative viability,[17]; first compound 0.002 µM,0.744
same,relative viability,[17]; first compound 0.006325 µM,0.22
same,relative viability,[17]; first compound 0.02 µM,0.137
same,relative viability,[18]; first compound 0.0002 µM,1.01
same,relative viability,[18]; first compound 0.000632 µM,0.637
same,relative viability,[18]; first compound 0.002 µM,0.545
same,relative viability,[18]; first compound 0.006325 µM,0.282
same,relative viability,[18]; first compound 0.02 µM,0.221
Nc1ccn([C@@H]2O[C@H](CO)[C@@H](O)[C@@H]2O)c(=O)n1 [Cytarabine] + CC(C)C[C@H](NC(=O)[C@H](Cc1ccccc1)NC(=O)c1cnccn1)B(O)O [Bortezomib] (partner 0.002 µM),relative viability,[1]; first compound 0.005 µM,0.983
same,relative viability,[1]; first compound 0.01581 µM,0.913
same,relative viability,[1]; first compound 0.05 µM,0.946
same,relative viability,[1]; first compound 0.1581 µM,0.631
same,relative viability,[1]; first compound 0.5 µM,0.66
same,relative viability,[2]; first compound 0.005 µM,0.745
same,relative viability,[2]; first compound 0.01581 µM,0.797
same,relative viability,[2]; first compound 0.05 µM,0.575
same,relative viability,[2]; first compound 0.1581 µM,0.517
same,relative viability,[2]; first compound 0.5 µM,0.468
same,relative viability,[3]; first compound 0.005 µM,1.01
same,relative viability,[3]; first compound 0.01581 µM,0.945
same,relative viability,[3]; first compound 0.05 µM,0.913
same,relative viability,[3]; first compound 0.1581 µM,0.274
same,relative viability,[3]; first compound 0.5 µM,0.165
same,relative viability,[4]; first compound 0.005 µM,0.878
same,relative viability,[4]; first compound 0.01581 µM,0.928
same,relative viability,[4]; first compound 0.05 µM,0.779
same,relative viability,[4]; first compound 0.1581 µM,0.835
same,relative viability,[4]; first compound 0.5 µM,0.592
same,relative viability,[5]; first compound 0.005 µM,0.996
same,relative viability,[5]; first compound 0.01581 µM,0.674
same,relative viability,[5]; first compound 0.05 µM,0.474
same,relative viability,[5]; first compound 0.1581 µM,0.459
same,relative viability,[5]; first compound 0.5 µM,0.329
same,relative viability,[6]; first compound 0.005 µM,0.911
same,relative viability,[6]; first compound 0.01581 µM,0.694
same,relative viability,[6]; first compound 0.05 µM,0.662
same,relative viability,[6]; first compound 0.1581 µM,0.943
same,relative viability,[6]; first compound 0.5 µM,1.03
same,relative viability,[7]; first compound 0.005 µM,0.606
same,relative viability,[7]; first compound 0.01581 µM,0.486
same,relative viability,[7]; first compound 0.05 µM,0.349
same,relative viability,[7]; first compound 0.1581 µM,0.223
same,relative viability,[7]; first compound 0.5 µM,0.209
same,relative viability,[8]; first compound 0.005 µM,0.906
same,relative viability,[8]; first compound 0.01581 µM,0.831
same,relative viability,[8]; first compound 0.05 µM,0.53
same,relative viability,[8]; first compound 0.1581 µM,0.412
same,relative viability,[8]; first compound 0.5 µM,0.453
same,relative viability,[9]; first compound 0.005 µM,0.631
same,relative viability,[9]; first compound 0.01581 µM,1.01
same,relative viability,[9]; first compound 0.05 µM,0.84
same,relative viability,[9]; first compound 0.1581 µM,0.573
same,relative viability,[9]; first compound 0.5 µM,0.338
same,relative viability,[10]; first compound 0.005 µM,0.469
same,relative viability,[10]; first compound 0.01581 µM,0.198
same,relative viability,[10]; first compound 0.05 µM,0.17
same,relative viability,[10]; first compound 0.1581 µM,0.0751
same,relative viability,[10]; first compound 0.5 µM,0.0603
same,relative viability,[11]; first compound 0.005 µM,0.412
same,relative viability,[11]; first compound 0.01581 µM,0.363
same,relative viability,[11]; first compound 0.05 µM,0.697
same,relative viability,[11]; first compound 0.1581 µM,0.468
same,relative viability,[11]; first compound 0.5 µM,0.34
same,relative viability,[12]; first compound 0.005 µM,0.707
same,relative viability,[12]; first compound 0.01581 µM,0.559
same,relative viability,[12]; first compound 0.05 µM,0.443
same,relative viability,[12]; first compound 0.1581 µM,0.437
same,relative viability,[12]; first compound 0.5 µM,0.499
same,relative viability,[13]; first compound 0.005 µM,0.977
same,relative viability,[13]; first compound 0.01581 µM,1.17
same,relative viability,[13]; first compound 0.05 µM,0.958
same,relative viability,[13]; first compound 0.1581 µM,1.04
same,relative viability,[13]; first compound 0.5 µM,0.966
same,relative viability,[14]; first compound 0.005 µM,1.03
same,relative viability,[14]; first compound 0.01581 µM,1.09
same,relative viability,[14]; first compound 0.05 µM,0.807
same,relative viability,[14]; first compound 0.1581 µM,0.254
same,relative viability,[14]; first compound 0.5 µM,0.229
same,relative viability,[15]; first compound 0.005 µM,0.802
same,relative viability,[15]; first compound 0.01581 µM,0.615
same,relative viability,[15]; first compound 0.05 µM,0.506
same,relative viability,[15]; first compound 0.1581 µM,0.242
same,relative viability,[15]; first compound 0.5 µM,0.21
same,relative viability,[16]; first compound 0.005 µM,0.828
same,relative viability,[16]; first compound 0.01581 µM,0.895
same,relative viability,[16]; first compound 0.05 µM,0.793
same,relative viability,[16]; first compound 0.1581 µM,0.425
same,relative viability,[16]; first compound 0.5 µM,0.405
same,relative viability,[17]; first compound 0.005 µM,1.09
same,relative viability,[17]; first compound 0.01581 µM,0.916
same,relative viability,[17]; first compound 0.05 µM,0.808
same,relative viability,[17]; first compound 0.1581 µM,0.7
same,relative viability,[17]; first compound 0.5 µM,0.663
same,relative viability,[18]; first compound 0.005 µM,1.14
same,relative viability,[18]; first compound 0.01581 µM,1.24
same,relative viability,[18]; first compound 0.05 µM,1.26
same,relative viability,[18]; first compound 0.1581 µM,1.01
same,relative viability,[18]; first compound 0.5 µM,1.03
